In publication PMC3597028 (Disease Models & Mechanisms, 2012):

Molecular target: PAD2 (peptidylarginine deiminase 2) (Homo sapiens, UniProt Q9Y2J8)
Assay type: biochemical

Chain of PAD2 (peptidylarginine deiminase 2) (Q9Y2J8 whole entry): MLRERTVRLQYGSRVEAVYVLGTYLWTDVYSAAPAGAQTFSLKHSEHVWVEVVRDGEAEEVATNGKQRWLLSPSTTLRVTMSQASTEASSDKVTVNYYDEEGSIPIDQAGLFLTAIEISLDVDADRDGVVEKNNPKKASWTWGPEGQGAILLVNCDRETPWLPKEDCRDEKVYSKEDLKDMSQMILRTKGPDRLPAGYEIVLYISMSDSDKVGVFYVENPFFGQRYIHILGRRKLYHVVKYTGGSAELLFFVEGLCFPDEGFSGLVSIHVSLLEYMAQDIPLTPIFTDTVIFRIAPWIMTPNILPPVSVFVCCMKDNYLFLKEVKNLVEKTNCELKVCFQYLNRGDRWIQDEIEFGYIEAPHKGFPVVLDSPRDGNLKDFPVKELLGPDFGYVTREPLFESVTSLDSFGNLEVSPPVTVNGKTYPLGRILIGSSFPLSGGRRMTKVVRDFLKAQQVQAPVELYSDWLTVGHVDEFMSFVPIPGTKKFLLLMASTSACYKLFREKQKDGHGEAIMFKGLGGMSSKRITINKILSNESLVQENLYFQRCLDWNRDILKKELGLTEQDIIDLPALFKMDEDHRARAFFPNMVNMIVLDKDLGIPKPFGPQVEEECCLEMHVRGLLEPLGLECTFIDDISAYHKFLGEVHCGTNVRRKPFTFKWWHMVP

Compound `N=C(N)CCl` [2CA, 2-chloroacetamidine] has an IC50 of 14.4 mM.
